US20130245110A1, “USE FOR CANNABINOIDS” (priority 2008, published 2013)
Values joined by “and” are separate entries in the source; they are usually repeats but may differ in a detail not shown here. Equal entries are not always repeated.

Experiments:
[1] = system: dietary induced obese (DIO) mouse model; assay: Growth (body weight, nose-anus length); type: in vivo; settings: DIO mice; chronic dosing
Procedure: The following are a battery of tests used to elicit the effects of drugs on diseases including type I or II diabetes, obesity, dyslipidaemia, related metabolic disorders and cardiovascular disease. • a) Body weight: Bodyweights of all mice were measured twice weekly during the study. • b) Food intake: Food intake was measured by weight difference taking account of food wastage in the bottom of the cage. • c) Measurement of water consumption: Water intake was calculated daily for each animal, during the treatment period, by weight difference of the water bottle. • d) Oral Glucose Tolerance Test (OGTT): Glucose was dissolved in water (3 g/10 ml) and given to the mice orally at a rate of 3 g/kg. […] Samples were then analysed automatically using a SpectraMax-250 and SoftMax Pro software. • f) Plasma preparation: Blood was collected for the measurement of i) plasma insulin, ii) cholesterol, iii) free fatty acids or iv) triglyceride concentration. • i. Plasma insulin analysis: Plasma insulin was measured using 5 μl of plasma, compared with a mouse insulin standard using a 96-well micro-assay plate • ii. […] The samples were mixed and incubated for 5 minutes before reading at dual wavelengths of 500 and 660 nm. • iii. Plasma free fatty acids: 5 μl samples of plasma were measured into a 96-well assay plate, to which was added 0.2 ml of reagents NEFA C • iv. […]

C57B1/6 ob/ob mouse = assay: Liver triglyceride; type: in vivo; settings: ob/ob mice, at termination, individual values
Procedure: Blood samples were also taken at −30 minutes for insulin analysis. • e) Blood Glucose analysis: Duplicate 20 μl samples of blood of were taken for each individual sample and placed in a 96-well assay plate. To each well was added 180 μl aliquots of glucose oxidase reagent. Samples were mixed and then left for approximately 30 minutes. Samples were then analysed automatically using a SpectraMax-250 and SoftMax Pro software. • f) Plasma preparation: Blood was collected for the measurement of i) plasma insulin, ii) cholesterol, iii) free fatty acids or iv) triglyceride concentration. • i. Plasma insulin analysis: Plasma insulin was measured using 5 μl of plasma, compared with a mouse insulin standard using a 96-well micro-assay plate • ii. Plasma cholesterol analysis: To each sample was added 200 μl of infinity cholesterol liquid stable reagent. The samples were mixed and incubated for 5 minutes before reading at dual wavelengths of 500 and 660 nm. • iii. Plasma free fatty acids: 5 μl samples of plasma were measured into a 96-well assay plate, to which was added 0.2 ml of reagents NEFA C • iv. […] Dedicated software was using to quantify amounts of bone and fat. The mice were lightly anaesthetised, sufficient to keep them quiescent during this non-invasive technique. • h) Energy expenditure measurements: Energy expenditure was measured by open circuit indirect calorimetry with mice in their home cages. […] Plasma leptin was measured in fed mice using the Crystal Chem Elisa assay. • j) Plasma adiponectin: Adiponectin exerts some of its weight reduction effects via the brain. […] Plasma adiponectin was measured in overnight fasted mice using the 96-well B-Bridge Elisa assay. • k) Plasma HDL-cholesterol: Plasma HDL-cholesterol was measured in fed mice using the kit from Trinity Biotech. • l) 24 h blood glucose profile: This was determined in order to ensure that changes in the diurnal control of blood glucose were detected. Thus blood samples were obtained at three hourly intervals throughout a continuous 24 h period. • m) Plasma haemoglobin AIC: Samples (10 μl) were analysed using the AIC. […]

PPARγ = target: T1, PPARγ (Homo sapiens, UniProt P37231); assay: Transcriptional transactivation assay (luciferase reporter gene 3xPPRE TK luc); type: cell-based; settings: any concentration tested
T1 construct: expressed in transfected cells
T1 sequence (P37231 1-505): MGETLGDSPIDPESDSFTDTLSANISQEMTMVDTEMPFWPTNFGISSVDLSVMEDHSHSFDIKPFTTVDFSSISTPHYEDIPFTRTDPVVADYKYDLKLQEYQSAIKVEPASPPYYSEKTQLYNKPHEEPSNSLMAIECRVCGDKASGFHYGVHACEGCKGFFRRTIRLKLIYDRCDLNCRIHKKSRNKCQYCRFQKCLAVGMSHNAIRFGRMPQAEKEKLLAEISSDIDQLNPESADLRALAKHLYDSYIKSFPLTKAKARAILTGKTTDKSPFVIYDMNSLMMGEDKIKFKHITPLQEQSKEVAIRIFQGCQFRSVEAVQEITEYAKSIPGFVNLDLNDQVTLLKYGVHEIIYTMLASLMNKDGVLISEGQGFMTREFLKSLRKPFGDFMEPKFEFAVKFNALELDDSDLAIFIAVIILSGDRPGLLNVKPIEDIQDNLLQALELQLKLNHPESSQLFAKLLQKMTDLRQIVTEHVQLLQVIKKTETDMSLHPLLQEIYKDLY
T1 sequence (P19793 1-462 partner): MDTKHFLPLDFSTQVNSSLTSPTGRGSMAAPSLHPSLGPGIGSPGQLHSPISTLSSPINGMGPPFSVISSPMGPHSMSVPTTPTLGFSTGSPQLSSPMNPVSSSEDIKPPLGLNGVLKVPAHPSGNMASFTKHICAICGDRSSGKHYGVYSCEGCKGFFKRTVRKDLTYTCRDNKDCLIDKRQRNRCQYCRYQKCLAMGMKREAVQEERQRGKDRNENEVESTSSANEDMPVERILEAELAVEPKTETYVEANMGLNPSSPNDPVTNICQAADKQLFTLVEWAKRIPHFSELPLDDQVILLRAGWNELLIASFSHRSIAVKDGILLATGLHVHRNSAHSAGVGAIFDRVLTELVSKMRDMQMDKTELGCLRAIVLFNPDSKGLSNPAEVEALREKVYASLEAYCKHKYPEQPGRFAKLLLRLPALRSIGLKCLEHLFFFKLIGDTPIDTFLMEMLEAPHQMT
Procedure: In vitro vascular studies were carried out in rat isolated aortae by wire myography. PPARγ activation was investigated using reporter gene assays, a PPARγ competition-binding assay and an adipogenesis assay.

Compound: CCCc1cc(O)c2c(c1)OC(C)(C)[C@@H]1CCC(C)=C[C@@H]21 [THCV, tetrahydrocannabivarin]
- Effect on growth [1]: without any effect on growth
- Liver triglycerides concentration (C57B1/6 ob/ob mouse; 0.3 mg·kg−1 daily oral gavage (combination: both 0.3)): 17.16 and 11.16 and 14.94 and 15.48 and 9.10 and 16.72 and 9.33 and 14.97
- Liver triglycerides concentration (C57B1/6 ob/ob mouse; 0.3 mg·kg−1 daily oral gavage (combination: both 0.3), listed as pure THCV): increased
- Liver triglycerides concentration (C57B1/6 ob/ob mouse; 3.0 mg·kg−1 daily oral gavage (combination: both 3.0)): 8.70 and 15.20 and 10.77 and 9.78 and 12.06 and 13.92 and 18.27 and 14.09
- PPARγ transcriptional activity (PPARγ): no effect
